Assays:
[1] = tested on: AMPK; assay: AMPK activation assay (western blot phospho-AMPK Thr172) in 3T3-L1; assay type: cell-based, mouse; conditions: 3T3-L1 cells, 30 min treatment
Experimental: (§1) Effects of compounds on AMPK activation were analyzed in mouse muscle cell C2C12, mouse fibroblast 3T3-L1 and human hepatocyte Hep G2. Those cell lines were cultured in high-glucose Dulbecco's modified Eagle's medium (DMEM) containing 10% fetal bovine serum (FBS), 4 mM L-glutamine, 2 mM sodium pyruvate and 1% penicillin/streptomycin (Invitrogen GibcoBRL, Carlsbad, Calif., USA) at 37° C. under 5% CO2. Cells were plated at 3×10^5 per well (6-well plate). 24 h after plating, cells were treated with indicated compounds for 30 min followed by cell lysis and western blot analysis. Equal amount of protein were separated by SDS-PAGE and then electroblotted on to PVDF membranes. Membranes were blocked with 3% BSA in PBS for 60 min and incubated with anti-phospho-AMPK (Thr172) antibody (1:2,000, Cell signaling), anti-AMPK antibody (1:2,000, Cell signaling), anti-Glut4 antibody (1:1,000, Millipore) or anti-actin antibody (1:5,000; Chemicon International) at 4° C. overnight followed by the corresponding secondary antibody for 1 h at room temperature (RT). Immunoreactive bands were detected by enhanced chemiluminescence (ECL; Pierce, Rockford, Ill., USA) and recorded using Kodakfilm (Rochester, N.Y., USA). The detected signals were scanned and then quantified by using TotalLab Quant software (TotalLab).

[2] = tested on: AMPK; assay: AMPK activation assay (western blot phospho-AMPK Thr172) in Hep G2; assay type: cell-based, human; conditions: Hep G2 cells, 30 min treatment
Experimental: as §1

[3] = tested on: AMPK; assay: AMPK activation assay (western blot phospho-AMPK Thr172) in C2C12; assay type: cell-based, mouse; conditions: C2C12 cells, 30 min treatment
Experimental: as §1

Row | SMILES | AMPK activation (% to control) 3T3-L1 ([1]; 1 microM) | AMPK activation (% to control) 3T3-L1 ([1]; 10 microM) | AMPK activation (% to control) 3T3-L1 ([1]; 100 microM) | AMPK activation (% to control) 3T3-L1 ([1]; 200 microM) | AMPK activation (% to control) Hep G2 ([2]; 1 microM) | AMPK activation (% to control) Hep G2 ([2]; 10 microM) | AMPK activation (% to control) Hep G2 ([2]; 100 microM) | AMPK activation (% to control) Hep G2 ([2]; 200 microM) | AMPK activation (% to control) C2C12 ([3]; 1 microM) | AMPK activation (% to control) C2C12 ([3]; 10 microM) | AMPK activation (% to control) C2C12 ([3]; 100 microM) | AMPK activation (% to control) C2C12 ([3]; 200 microM)
1 | Cc1c[nH]c(=O)nc1N [Example 5-methylcytosine, 5-methylcytosine] | 115 % to control | 161 % to control | 253 % to control | 356 % to control | 107 % to control | 114 % to control | 218 % to control | 317 % to control | 116 % to control | 157 % to control | 241 % to control | 338 % to control
2 | Oc1nc(Cl)nc2nc[nH]c12 [Example 2-chloro-6-hydroxypurine, 2-chloro-6-hydroxypurine] | 108 % to control | 145 % to control | 243 % to control | 356 % to control | 110 % to control | 163 % to control | 249 % to control | 375 % to control | 109 % to control | 156 % to control | 277 % to control | 331 % to control
3 | CCCCCCNc1ncnc2nc[nH]c12 [Example 6-hexylaminopurine, 6-hexylaminopurine] | 108 % to control | 111 % to control | 170 % to control | 265 % to control | 112 % to control | 148 % to control | 280 % to control | 317 % to control | 109 % to control | 123 % to control | 248 % to control | 359 % to control
4 | CN(C)c1nc(O)c2[nH]cnc2n1 [Example 2-Dimethylamino-6-hydroxypurine, 2-Dimethylamino-6-hydroxypurine] | 106 % to control | 108 % to control | 205 % to control | 264 % to control | 117 % to control | 132 % to control | 185 % to control | 218 % to control | 105 % to control | 111 % to control | 229 % to control | 298 % to control
5 | Nc1nc(S)nc2nc[nH]c12 [Example 2-mercaptoadenine, 2-mercaptoadenine] | 112 % to control | 128 % to control | 204 % to control | 297 % to control | 118 % to control | 119 % to control | 195 % to control | 308 % to control | 105 % to control | 115 % to control | 221 % to control | 289 % to control

— US9938279B2, “Method for treating disease or condition susceptible to amelioration by AMPK activators and compounds of formula which are useful to activate AMP-activated protein kinase (AMPK)” (ENERGENESIS BIOMEDICAL CO., LTD, priority 2013, dated 2018)
